Test results taken from article PMC8348310, “Antioxidants Isolated from Elaeagnus umbellata (Thunb.) Protect against Bacterial Infections and Diabetes in Streptozotocin-Induced Diabetic Rat Model” (Molecules, 2021).
Values after ≈ are worked out from the molar mass of the structure shown. One block for each molecule: values may come before it.

Tests used:
Klebsiella pneumonia = assay: Broth dilution MIC determination; assay type: cell-based; settings: Klebsiella pneumoniae, 37 °C, 24 h, read-out: Minimum Inhibitory Concentrations
Description: (§1) Antibacterial potential of isolated compound was investigated against both Gram-positive and Gram-negative bacterial strains; Escherichia coli, Bacillus cereus, Salmonella typhi, Klebsiella pneumonia, Pseudomonas aeruginosa and Proteus mirabilis. Bacterial strains were provided by the Department of Pharmacy, University of Malakand, Khyber Pakhtunkhwa, Pakistan, and were kept at 4 °C in agar slants in freeze-dried condition until further use.
(§2) Both Gram-positive and Gram-negative bacterial strains Escherichia coli, Bacillus cereus, Salmonella typhi, Klebsiella pneumonia, Pseudomonas aeruginosa and Proteus mirabilis organism viable count per mL in the stock suspension was determined using surface viable counting technique. About 10^8–10^9 colony-forming units (CFU) per mL were used as inoculum in subsequent experiments. A fresh stock suspension was used each time.
(§3) Minimum inhibitory concentrations (MICs) of morin, phloroglucinol, and 1-hexyl benzene were determined using broth dilution method, following the Clinical and Laboratory Standards Institute (CLSI) guidelines. Stock solutions of morin, phloroglucinol, and 1-hexyl benzene were prepared in dimethylsulphoxide (DMSO). The serial dilutions from the stock solution were made ranging from 500 to 3.90 μg/mL using Mueller–Hinton broth. Sterile centrifuge tubes were arranged in sets of rows for each bacterial inoculum to cover the different concentration of isolated compounds in triplicate. The standard bacterial stock suspension 10^8–10^9 CFU/mL, in 100 μL were inoculated into each tube. A sterility control tube and a growth control tube were also incubated (for each strain). The tubes were incubated at 37 °C for 24 h. After incubation, 40 μL of a 0.4 mg/mL solution of para iodonitrotetrazolium (INT) chloride was added to each tube as an indicator of microbial growth. […] The evaluation for the inhibition of microbial growth was based on the color change of INT to pink, while no color change indicates the absence of growth. The MIC is the lowest concentration of the compounds at which there is no visible growth in the tubes. The concentration that inhibited bacterial growth completely (the first clear tube) was taken as the MIC value. Experiments were performed in triplicate and mean values are presented.
(§4) In order to, determine the sensitivity of the bacterial strains, positive control experiments were conducted, taking ampicillin at a starting concentration of 0.10 mg/mL in sterile water while the final concentrations for these experiments ranged from 25.00 to 0.19 μg/mL. A negative control experiment was conducted using only DMSO.

Bacillus cereus = assay: Broth dilution MIC determination; assay type: cell-based; settings: 37 °C, 24 h, read-out: Minimum Inhibitory Concentrations
Description: as §1, §2, §3, §4

Pseudomonas aeruginosa = assay: Broth dilution MIC determination; assay type: cell-based; settings: 37 °C, 24 h, read-out: Minimum Inhibitory Concentrations
Description: as §1, §2, §3, §4

Escherichia coli = assay: Broth dilution MIC determination; assay type: cell-based; settings: 37 °C, 24 h, read-out: Minimum Inhibitory Concentrations
Description: as §1, §2, §3, §4

Proteus mirabilis = assay: Broth dilution MIC determination; assay type: cell-based; settings: 37 °C, 24 h, read-out: Minimum Inhibitory Concentrations
Description: as §1, §2, §3, §4

Staphylococcus aureus = assay: Broth dilution MIC determination; assay type: cell-based; settings: 37 °C, 24 h, read-out: Minimum Inhibitory Concentrations
Description: as §3, with “Stock” for “Minimum inhibitory concentrations (MICs) of morin, phloroglucinol, and 1-hexyl benzene were determined using broth dilution method, following the Clinical and Laboratory Standards Institute (CLSI) guidelines. Stock”, “The serial dilutions from the stock solution were made ranging from 500 to 3.90 μg/mL using Mueller–Hinton broth.” left out, “The standard bacterial stock suspension 10^8–10^9 CFU/mL, in 100 μL were inoculated into each tube.” left out, “presented. […] A negative control experiment was conducted using only DMSO.” for “presented.”

Salmonella typhi = assay: Broth dilution MIC determination; assay type: cell-based; settings: Salmonella enterica, 24 h, read-out: Minimum Inhibitory Concentrations
[1] = DPPH free radical scavenging assay; assay type: biochemical; settings: 125 µg/mL
[2] = ABTS free radical scavenging assay; assay type: biochemical
Description: ABTS (2,2′-azinobis-3-ethylbenzothiazoline-6-sulfonic acid) free radicals inhibition potential were determined according to the reported assay. ABTS solution was prepared in methanol (100 mL). In total, 300 µL of compound (morin, phloroglucinol, and 1-hexyl benzene) was mixed thoroughly with 3.0 mL ABTS solution and incubated for six minutes. Finally, the absorbance was measured through UV spectrophotometer using ascorbic acid as positive control. Percent ABTS free radicals scavenging potential was calculated using the equation No. 1.
(§5) All the in vitro and in vivo experiments were analyzed in three replicates and determined as mean ± SEM. Student’s t-test and one way ANOVA followed by Dunnett’s post hoc multiple comparison test was used. p ≤ 0.05 were considered as significant. Linear regression analysis was used to calculate the IC50 value for % DPPH, ABTS, α-amylase, and α-glucosidase inhibition against the different concentrations of the test samples by means of Excel program 2007.

[3] = DPPH free radical scavenging assay; assay type: biochemical
Description: According to the Brand-Williams assay DPPH (2, 2-diphenyl-1-picrylhydrazyl) free radical scavenging activity of morin was determined. DPPH and compounds stock solutions (1 mg/mL) were prepared in 100 mL methanol with serial dilutions of […], 62.5, 250, 500, and 1000 µg/mL. After that, 0.1 mL morin was mixed with 3.0 mL DPPH solution and incubated at 23 °C for 30 min. Standard ascorbic acid solution was also prepared in the same way using as a positive control. Finally, absorbance was measured at 517 nm via UV spectrophotometer. Results were taken in a set of three experiments and represented as mean ± SEM. Percent free radicals scavenging potential was calculated according to the following Equation (1): (1) % Free radicals Scavenging potential = Blank sample absorbance−sample absorbance/Blank sample absorbance×100
as §5

[4] = 1000 µg/mL, listed as ascorbic acid
[5] = linear regression of % scavenging vs concentration

Structure (SMILES): CC1(C)S[C@@H]2[C@H](NC(=O)[C@H](N)c3ccccc3)C(=O)N2[C@H]1C(=O)O [Ampicillin, ampicillin, reference compound]
MIC (Klebsiella pneumonia): 1.9 ± 1.2 µg/mL (≈ 5.44 µM)
MIC (Bacillus cereus): 1.6 µg/mL (≈ 4.58 µM)
MIC (Pseudomonas aeruginosa): 1.2 ± 0.5 µg/mL (≈ 3.43 µM)
MIC (Escherichia coli): 1 ± 0.1 µg/mL (≈ 2.86 µM)
MIC (Proteus mirabilis): 1.9 ± 1.1 µg/mL (≈ 5.44 µM)
MIC (Staphylococcus aureus): 1.4 ± 0.5 µg/mL (≈ 4.01 µM)
MIC (Salmonella typhi): 1.8 ± 0.1 µg/mL (≈ 5.15 µM)

ABTS IC50 [2, 5]: 32 µg/mL
DPPH IC50 [3, 5]: 29 µg/mL
Structure (SMILES): O=C1O[C@H]([C@@H](O)CO)C(O)=C1O [Ascorbic acid, ascorbic acid, reference compound]
% DPPH Scavenging Mean ± SEM [1]: 77 ± 0.4%
% ABTS Scavenging Mean ± SEM ([2]; 31.05 µg/mL): 56 ± 1.1%
% ABTS Scavenging Mean ± SEM ([2]; 62.5 µg/mL): 64 ± 1.0%
% ABTS Scavenging Mean ± SEM ([2]; 125 µg/mL): 70 ± 0.5%
% ABTS Scavenging Mean ± SEM ([2]; 250 µg/mL): 78 ± 0.5%
% ABTS Scavenging Mean ± SEM ([2]; 500 µg/mL): 84 ± 1.1%
% ABTS Scavenging Mean ± SEM ([2]; 1000 µg/mL): 90 ± 0.5%
% ABTS Scavenging Mean ± SEM [2, 4]: 85 ± 0.5%
% DPPH Scavenging Mean ± SEM ([3]; 31.05 µg/mL): 69 ± 0.4%
% DPPH Scavenging Mean ± SEM ([3]; 62.5 µg/mL): 73 ± 0.5%
% DPPH Scavenging Mean ± SEM ([3]; 250 µg/mL): 80 ± 0.4%
% DPPH Scavenging Mean ± SEM ([3]; 500 µg/mL): 86 ± 1.0%
% DPPH Scavenging Mean ± SEM ([3]; 1000 µg/mL): 91 ± 0.5%
% DPPH Scavenging Mean ± SEM [3, 4]: 86 ± 0.5%
